“Also recorded” adds a separate entry of the source.

Data set [1] relates to Sprague-Dawley adult male rats. Nature of the data set: Traumatic brain injury (lateral fluid percussion): ICP, CPP and pbtO2 monitoring. Format: in vivo, rat. The procedure: Sprague-Dawley adult male rats were divided into 4 groups: vehicle, E2-SO4 (1 mg/kg), sham+vehicle and sham+E2-SO4; n=5/group. The TBI model was lateral fluid percussion injury (LFP), induced via a hydraulic pressure pulse to the anesthetized rat's exposed brain. This was introduced through a burr hole in the lateral skull prepared one day prior to LFP. A single iv dose of E2-SO4 or saline vehicle was administered 1 hr after LFP. Physiological parameters were measured 24 hr post-injury.
(§1) In a second experiment, the efficacy of E2-SO4 treatment for TBI in a lateral fluid percussion (LFP) model was examined. This involved 6 groups of rats (n=5/group). All rats received a craniectomy. Groups 1, 2, 4 and 5 received LFP injury. Groups 1 and 4 were treated with E2 (1 mg/kg) 1 hr post-injury, groups 2 and 5 were vehicle (Veh)-treated and groups 3 and 6 were sham. Groups 1-3 underwent intracranial pressure (ICP), cerebral perfusion pressure (CPP) and partial oxygen pressure (pbtO2) monitoring. Groups 4-6 underwent fludoexoyglucose (FDG)-PET/CT and diffusion tensor imaging (DTI) analysis on days 1 and 7 post-induction. Relative standard uptake values (SUV) of upper half of brain to central value, fractional anisotropy (FA) and apparent diffusion coefficient (ADC) maps were calculated.
FIG. 48B is a plot of cerebral perfusion pressure, which is a derivative of mean arterial pressure less ICP. […] The X axis is shown for an extended 2 hours to confirm stability for the various probes used.
The clinical manifestation of edema after TBI can be seen as increased intracranial pressure, with lower brain perfusion pressure and reduced oxygen tension. […] FIG. 44 compares treatments for TBI with hormones, measured over a 120 min period to control the effects of the invasive probe on pressures. The treatments are progesterone (T+progesterone: magenta), progesterone plus E2-SO4 (T+E+P: brown), E2-SO4 (T+E2SO4: red) and EE-3-SO4 (T+EE-3SO4: yellow).

For data set [2], the system named is ovariectomized female CBA/J mice. Nature of the data set: Trauma-hemorrhage in ovariectomized female mice: plasma E2 and uterine wet weight. Particulars: 24 h after E2 sc; sham operated or hemorrhaged, vs vehicle. Format: in vivo, mouse.
Protocol: To test this, ovariectomized female CBA/J mice were subjected to laparotomy (i.e., soft tissue trauma) and hemorrhagic shock (35±5 mmHg for 90 min, then resuscitated) or sham operation. […] Immune cells were isolated 24 h thereafter.
Experimental groups. Ovariectomy was performed in female CBA/J mice 2 wk before trauma-hemorrhage using two dorsolateral incisions. […] Two weeks after ovariectomy, the animals were divided into four groups. Groups 1 and 2 consisted of sham-operated ovariectomized females, which were neither hemorrhaged nor resuscitated. Animals in groups 3 and 4 consisted of ovariectomized females, which were subjected to the trauma-hemorrhage procedure. […] Each group consisted of 7-8 animals.
Trauma-hemorrhage procedure. […] Blood pressure was constantly monitored by attaching one of the catheters to a blood pressure analyzer (Micro-Med, Louisville, Ky.). […]
Determination of plasma E2 concentration. E2 concentration was determined using a commercially available radio-immunoassay (ICN Biomedicals, Costa Mesa, Calif.) as described by the manufacturer.
The subject of another data set is injured brain. Nature of the data set: Traumatic brain injury: FDG-PET/CT, diffusion tensor imaging and MRI edema. Format: in vivo, rat. As for the experimental part:
as §1
Rats were either treated with E2 or a saline vehicle control, where treatment is administered 1 hour after injury. […] The former is the area of deranged nerves, while the latter constitutes intact nerves.

A further data set has as its system cardiac performance. As to the kind of experiment: SPECT-CT of cardiac performance after severe hemorrhage. The format is in vivo, rat. Particulars: FIG. 46. The procedure:
This was measured by SPECT-CT (single photon emission computed tomography-computed tomography) which enables the measurement of the volume of blood forced from the heart visualized through 3-D, real-time imaging (FIG. 46).

The conditions of data set [3]: rat, in vivo, iv.
The next data set concerns Male SD rats. Nature of the data set: Survival and blood pressure after trauma-hemorrhage with 60% blood loss and no fluid resuscitation. The format is in vivo, rat. The procedure: 16 rats were subjected to 60% removal of blood volume, using the same protocol found in Example 5.
Furthermore, crystalloid fluid resuscitation was administered following an initial 3-hour interval after the trauma and major blood loss, and rats were followed for 7 days. It has been observed that rats which survive for the initial 3 hours uniformly go on to survive for prolonged period of time and were then sacrificed. The survival rate is 68% for estrogen-treated rats, while all untreated control rats have died within the initial 3-hour interval (see FIG. 21).
(§2) Although E2 administration after trauma-hemorrhage (T-H) and fluid resuscitation produces salutary effects on organ functions, it was not known if E2 has any beneficial effects after major blood loss in the absence of fluid resuscitation. Male SD rats ˜250 g) underwent T-H (tissue trauma, BP 40 mmHg in 10 min and maintained at that BP by further blood withdrawal until maximum bleed out (MBO, 60% of total blood volume) occurred (45:t5 min)). E2 i.v. (1 mg/Kg, 0.4 ml/Kg volume, i.e., 120 μL/300 g body weight) or vehicle (cyclodextrin, CD) was then infused. No additional fluid was given for 3 hours. If rats survived, they received Ringer's lactate, 4× the MBO volume. A custom-fabricated 31p coil was placed on the surface of the rat's liver after laparotomy in another group, and spectra acquired using 4.7T NMR spectroscopy via a 31p coil in real time before and during hemorrhagic shock. Shock increased phosphomonoester and Pi with a concomitant decrease in β-ATP in both groups.

The next data set has as its system liver ATP and pH. Nature of the data set: 31P NMR spectroscopy of liver ATP and intracellular pH during hemorrhagic shock. The format is in vivo, rat. Particulars: FIG. 23; vs cyclodextrin control; listed as E2. The procedure:
Imaging and nuclear magnetic resonance studies were conducted to evaluate the effects of E2 on preservation of adenosine triphosphate (ATP) and pH levels in the liver.
The traumatic injury can involve a reduction in cellular ATP levels as compared to control ATP levels. By “control” is meant levels as measured before the traumatic injury, or levels that are considered in the “normal” range for the subject. Imaging and nuclear magnetic resonance studies have also been conducted to evaluate the effects of E2 on preservation of adenosine triphosphate (ATP) and pH levels in the liver.
as §2, with “A custom-fabricated 31p coil was placed on the surface of the rat's liver after laparotomy in another group, and spectra acquired using 4.7T NMR spectroscopy via a 31p coil in real time before and during hemorrhagic shock. Shock increased phosphomonoester and Pi with a concomitant decrease in β-ATP in both groups.” left out

For the compound `C[C@]12CC[C@@H]3c4ccc(O)cc4CC[C@H]3[C@@H]1CC[C@@H]2O` [17β-estradiol], in data set [1] (FIG. 48, E2 treatment administered 24 hours after TBI), the “oxygen delivery to the injured brain” value is given as “enhances oxygen delivery to the injured brain”. The “CPP (cerebral perfusion pressure)” value in data set [1] (TBI (LFP), 1 mg/kg 1 hr post-injury, Veh 65.2±1.4, sham 82.1±1.3) is listed as 75.7±1.4 mmHg. In addition, the “pbtO2 (brain tissue oxygen partial pressure)” value in data set [1] (TBI (LFP), 1 mg/kg iv 1 hr after injury, 24 hr post-injury, vehicle 15.8±1.3, sham 39.6) turned out to be 34.1±1.6 mmHg. Further, the uterine wet weight entry in data set [2] is on record as “significantly increased”. Moreover, in the data set with injured brain (FIG. 49, treatment 1 hour after injury, images 24 hr after treatment), the “reduction in FA, sum of volumes from DTI slices, compared to vehicle controls” value is “approximately 50%”. The “FA (fractional anisotropy) change” value in the data set on injured brain (between Veh and treated groups) was “No significant FA change”. The Edema size in the data set on injured brain (day 1, treated group) stood at 10.4±2.6 mm^3; in the data set with injured brain (day 7, treated group), 1.2±0.7 mm^3. Also, in the data set on cardiac performance, the “cardiac performance as ejection fraction (SPECT-CT)” value is given as “substantially enhance cardiac performance as ejection fraction”. In addition, the “blood levels after injection” value in data set [3] is “attains high blood levels rapidly”. The “3-hour survival rates without fluid resuscitation” value with Male SD rats (E2 i.v. 1 mg/Kg, 0.4 ml/Kg at MBO (60% of total blood volume), vehicle cyclodextrin) was “markedly improves 3-hour survival rates”. Also, the “long-term survival after resuscitation” value in the data set on Male SD rats (Ringer's lactate 4x MBO volume after 3 hours) is reported as “increases long-term survival after resuscitation”. Moreover, the “intracellular pH in liver” value in the data set on liver ATP and pH is “maintenance of pH near neutral; also recorded: pH remains near neutral”.

The values above are taken from patent US9359451B2, “Methods and compositions for treating trauma-hemorrhage using estrogen and derivatives thereof” (THE UAB RESEARCH FOUNDATION, priority 2012, dated 2016).
